Laboratory results from article PMC3145970, “Specific CLK Inhibitors from a Novel Chemotype for Regulation of Alternative Splicing” (Chemistry & Biology, 2011).
Where two headings read alike, the source gives them in different places.

Experiments:
Type in all cases: binding
[1] = biological target: PIM2 (Homo sapiens, UniProt Q9P1W9); test: Thermal stability shift assay; conditions: read-out: Tm shift PIM2
Procedure, shortened: (§1)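 DSF read-out: SyproOrange fluorescence (1:1000) during thermal unfolding of 2 μM kinase with 10 μM compound. Buffer 10 mM HEPES pH 7.5, 500 mM NaCl; run on a real-time PCR machine.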

[2] = biological target: T1, PKD3 (Homo sapiens, UniProt O94806); test: Thermal stability shift assay; conditions: read-out: Tm shift PKD3
T1 sequence (O94806 1-890): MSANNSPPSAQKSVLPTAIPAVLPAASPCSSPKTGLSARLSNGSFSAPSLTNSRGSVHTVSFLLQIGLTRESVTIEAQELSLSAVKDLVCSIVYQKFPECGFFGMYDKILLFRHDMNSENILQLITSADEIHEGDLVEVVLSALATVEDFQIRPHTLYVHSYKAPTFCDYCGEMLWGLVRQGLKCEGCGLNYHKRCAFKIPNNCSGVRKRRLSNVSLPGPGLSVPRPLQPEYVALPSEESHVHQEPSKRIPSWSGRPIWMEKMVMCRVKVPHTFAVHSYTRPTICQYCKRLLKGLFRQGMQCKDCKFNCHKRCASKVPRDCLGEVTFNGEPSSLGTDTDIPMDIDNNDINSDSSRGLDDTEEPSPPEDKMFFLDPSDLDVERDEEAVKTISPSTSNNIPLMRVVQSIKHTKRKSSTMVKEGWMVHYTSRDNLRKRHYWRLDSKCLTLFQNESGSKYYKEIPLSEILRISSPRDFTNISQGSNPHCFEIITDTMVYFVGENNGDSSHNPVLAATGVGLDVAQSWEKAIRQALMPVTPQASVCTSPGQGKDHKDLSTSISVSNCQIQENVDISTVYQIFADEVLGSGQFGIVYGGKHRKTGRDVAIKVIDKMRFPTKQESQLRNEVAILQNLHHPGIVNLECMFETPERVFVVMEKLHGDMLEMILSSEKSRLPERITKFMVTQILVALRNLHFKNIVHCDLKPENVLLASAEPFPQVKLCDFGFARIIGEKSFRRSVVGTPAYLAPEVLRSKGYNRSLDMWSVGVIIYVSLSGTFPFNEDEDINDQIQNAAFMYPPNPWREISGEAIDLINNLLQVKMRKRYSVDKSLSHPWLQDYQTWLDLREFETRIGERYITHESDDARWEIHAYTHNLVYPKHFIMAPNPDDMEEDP
Procedure, shortened: as §1

[3] = biological target: PIM1 (Homo sapiens, UniProt P11309); test: Thermal stability shift assay; conditions: read-out: Tm shift PIM1
Chain of PIM1 (P11309 whole entry): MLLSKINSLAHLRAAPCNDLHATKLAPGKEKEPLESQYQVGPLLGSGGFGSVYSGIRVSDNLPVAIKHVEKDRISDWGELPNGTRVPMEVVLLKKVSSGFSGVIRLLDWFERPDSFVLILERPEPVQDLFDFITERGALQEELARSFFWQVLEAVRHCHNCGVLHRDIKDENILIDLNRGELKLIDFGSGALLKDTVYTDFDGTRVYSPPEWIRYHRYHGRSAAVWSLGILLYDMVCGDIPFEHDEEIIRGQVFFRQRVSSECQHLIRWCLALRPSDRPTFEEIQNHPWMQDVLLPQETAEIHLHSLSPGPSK
Protocol: (§2) Thermal denaturation experiments were carried out in an Mx3005p real-time PCR machine (Agilent) using a protein concentration of 2 μM and an inhibitor concentration of 10 μM. Samples were buffered in 10 mM HEPES (pH 7.5), 500 mM NaCl and a 1:1000 dilution of SyproOrange (Invitrogen).

[4] = biological target: CDK2 (Homo sapiens, UniProt P24941); test: Thermal stability shift assay; conditions: read-out: Tm shift CDK2
Protocol: as §2

[5] = biological target: T2, Erk1 (Homo sapiens, UniProt P27361); test: Thermal stability shift assay; conditions: read-out: Tm shift Erk1
T2 construct: purchased in-house (SGC Oxford thermal shift panel)
T2 sequence (P27361 whole entry): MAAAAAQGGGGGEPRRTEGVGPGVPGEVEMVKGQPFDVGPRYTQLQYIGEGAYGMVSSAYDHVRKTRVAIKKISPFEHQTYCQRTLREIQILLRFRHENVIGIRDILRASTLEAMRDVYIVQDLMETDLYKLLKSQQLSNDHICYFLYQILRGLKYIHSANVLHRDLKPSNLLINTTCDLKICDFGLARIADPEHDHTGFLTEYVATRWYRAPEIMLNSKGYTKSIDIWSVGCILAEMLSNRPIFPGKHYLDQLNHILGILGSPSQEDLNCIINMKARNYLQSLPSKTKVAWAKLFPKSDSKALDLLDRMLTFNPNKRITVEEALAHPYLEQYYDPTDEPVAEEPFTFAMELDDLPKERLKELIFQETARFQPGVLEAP
Protocol: as §2

[6] = biological target: CK1g3 (Homo sapiens, UniProt Q9Y6M4); test: Thermal stability shift assay; conditions: read-out: Tm shift CK1g3
Chain of CK1g3 (Q9Y6M4 whole entry): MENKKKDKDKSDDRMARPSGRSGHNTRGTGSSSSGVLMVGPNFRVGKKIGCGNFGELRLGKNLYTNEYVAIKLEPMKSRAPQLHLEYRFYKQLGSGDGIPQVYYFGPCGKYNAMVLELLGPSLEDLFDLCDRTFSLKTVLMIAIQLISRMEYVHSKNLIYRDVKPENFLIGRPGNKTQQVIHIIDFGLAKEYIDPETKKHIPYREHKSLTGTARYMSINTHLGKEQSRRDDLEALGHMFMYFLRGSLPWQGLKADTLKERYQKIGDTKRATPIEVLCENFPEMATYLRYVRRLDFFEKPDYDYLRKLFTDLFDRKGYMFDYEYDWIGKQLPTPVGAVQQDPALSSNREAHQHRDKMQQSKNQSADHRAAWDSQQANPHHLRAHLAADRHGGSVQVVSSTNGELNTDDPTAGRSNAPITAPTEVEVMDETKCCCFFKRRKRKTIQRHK
Protocol: as §2

[7] = test system: panel of 106 kinases / 129 human protein kinases; test: Thermal shift assay, kinase panel; conditions: inhibitor 10 μM
Protocol: as §2, with “(Invitrogen). The assay and data evaluation were carried out as described ([Bullock et al., 2005])” for “(Invitrogen).”

[8] = biological target: T3, CLK4 (Homo sapiens, UniProt Q9HAZ1); test: Thermal stability shift assay; conditions: inhibitor 10 μM; read-out: Tm shift CLK4
T3 construct: purchased in-house (SGC Oxford thermal shift panel)
T3 sequence (Q9HAZ1 whole entry): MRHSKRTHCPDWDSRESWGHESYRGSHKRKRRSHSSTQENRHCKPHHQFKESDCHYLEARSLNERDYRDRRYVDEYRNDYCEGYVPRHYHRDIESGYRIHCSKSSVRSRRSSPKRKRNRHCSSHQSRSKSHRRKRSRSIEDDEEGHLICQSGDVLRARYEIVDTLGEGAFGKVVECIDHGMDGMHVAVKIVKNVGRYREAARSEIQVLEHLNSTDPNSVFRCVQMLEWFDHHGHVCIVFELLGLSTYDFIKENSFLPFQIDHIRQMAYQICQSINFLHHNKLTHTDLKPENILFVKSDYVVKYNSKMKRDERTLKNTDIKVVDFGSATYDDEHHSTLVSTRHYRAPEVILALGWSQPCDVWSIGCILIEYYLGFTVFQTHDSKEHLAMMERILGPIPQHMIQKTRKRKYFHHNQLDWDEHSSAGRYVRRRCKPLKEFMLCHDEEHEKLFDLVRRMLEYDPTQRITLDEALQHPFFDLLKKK
Protocol: as §2

[9] = biological target: CK1e (Homo sapiens, UniProt P49674); test: Thermal stability shift assay; conditions: inhibitor 10 μM; read-out: Tm shift CK1e
Chain of CK1e (P49674 whole entry): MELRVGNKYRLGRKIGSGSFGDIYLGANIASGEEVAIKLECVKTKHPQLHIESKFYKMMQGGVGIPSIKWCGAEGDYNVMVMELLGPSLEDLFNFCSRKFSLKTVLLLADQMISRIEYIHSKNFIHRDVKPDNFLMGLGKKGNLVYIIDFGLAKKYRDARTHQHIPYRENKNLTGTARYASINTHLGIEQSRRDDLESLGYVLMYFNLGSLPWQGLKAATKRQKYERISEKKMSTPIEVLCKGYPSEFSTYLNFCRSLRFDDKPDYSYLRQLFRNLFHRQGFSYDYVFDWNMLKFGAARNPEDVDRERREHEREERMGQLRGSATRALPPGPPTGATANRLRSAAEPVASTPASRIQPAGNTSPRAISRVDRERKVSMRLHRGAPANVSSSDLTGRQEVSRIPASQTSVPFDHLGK
Protocol: as §2

[10] = biological target: T4, DYRK1A (Homo sapiens, UniProt Q13627); test: Thermal stability shift assay; conditions: inhibitor 10 μM; read-out: Tm shift DYRK1A
T4 construct: purchased in-house (SGC Oxford thermal shift panel)
Protocol: as §2

[11] = biological target: T5, DYRK2 (Homo sapiens, UniProt Q92630); test: Thermal stability shift assay; conditions: inhibitor 10 μM; read-out: Tm shift DYRK2
T5 construct: purchased in-house (SGC Oxford thermal shift panel)
T5 sequence (Q92630 1-601): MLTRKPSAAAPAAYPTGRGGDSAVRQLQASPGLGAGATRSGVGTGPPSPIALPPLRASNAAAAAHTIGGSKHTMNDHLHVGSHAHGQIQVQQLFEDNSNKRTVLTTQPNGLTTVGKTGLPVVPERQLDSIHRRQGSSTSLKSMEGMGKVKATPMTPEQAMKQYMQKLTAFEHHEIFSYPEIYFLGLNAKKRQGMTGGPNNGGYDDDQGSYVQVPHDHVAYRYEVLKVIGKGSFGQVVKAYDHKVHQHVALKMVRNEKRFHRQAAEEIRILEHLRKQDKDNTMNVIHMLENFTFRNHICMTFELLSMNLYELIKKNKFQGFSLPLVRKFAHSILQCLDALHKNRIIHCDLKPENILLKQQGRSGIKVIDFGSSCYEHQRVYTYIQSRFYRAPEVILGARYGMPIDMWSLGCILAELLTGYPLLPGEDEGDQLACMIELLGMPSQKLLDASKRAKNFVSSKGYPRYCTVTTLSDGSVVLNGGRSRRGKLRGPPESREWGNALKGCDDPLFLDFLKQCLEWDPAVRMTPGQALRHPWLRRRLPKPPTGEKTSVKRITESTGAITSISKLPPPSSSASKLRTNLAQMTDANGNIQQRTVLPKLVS
Protocol: as §2

[12] = biological target: T6, CLK1 (Homo sapiens, UniProt P49759); test: Thermal stability shift assay; conditions: inhibitor 10 μM; read-out: Tm shift CLK1
T6 construct: the kinase domains of human CLK1 (residues: 148–484 (C terminus)); hexahistidine tag (TEV-cleavable) (cleaved yes); made in house; host or cells: E. coli BL21(DE3)
T6 sequence (P49759 148-484): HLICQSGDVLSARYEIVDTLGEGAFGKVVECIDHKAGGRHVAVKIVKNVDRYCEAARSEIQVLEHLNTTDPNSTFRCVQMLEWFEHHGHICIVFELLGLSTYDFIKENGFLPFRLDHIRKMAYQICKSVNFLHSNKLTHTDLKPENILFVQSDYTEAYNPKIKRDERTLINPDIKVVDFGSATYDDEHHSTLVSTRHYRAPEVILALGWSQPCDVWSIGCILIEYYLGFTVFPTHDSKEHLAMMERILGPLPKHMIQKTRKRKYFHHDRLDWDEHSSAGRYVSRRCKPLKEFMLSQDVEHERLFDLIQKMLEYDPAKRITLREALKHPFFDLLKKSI
Protocol: as §2

[13] = biological target: T7, CLK3 (Homo sapiens, UniProt P49761); test: Thermal stability shift assay; conditions: inhibitor 10 μM; read-out: Tm shift CLK3
T7 construct: purchased in-house (SGC Oxford thermal shift panel)
T7 sequence (P49761 whole entry): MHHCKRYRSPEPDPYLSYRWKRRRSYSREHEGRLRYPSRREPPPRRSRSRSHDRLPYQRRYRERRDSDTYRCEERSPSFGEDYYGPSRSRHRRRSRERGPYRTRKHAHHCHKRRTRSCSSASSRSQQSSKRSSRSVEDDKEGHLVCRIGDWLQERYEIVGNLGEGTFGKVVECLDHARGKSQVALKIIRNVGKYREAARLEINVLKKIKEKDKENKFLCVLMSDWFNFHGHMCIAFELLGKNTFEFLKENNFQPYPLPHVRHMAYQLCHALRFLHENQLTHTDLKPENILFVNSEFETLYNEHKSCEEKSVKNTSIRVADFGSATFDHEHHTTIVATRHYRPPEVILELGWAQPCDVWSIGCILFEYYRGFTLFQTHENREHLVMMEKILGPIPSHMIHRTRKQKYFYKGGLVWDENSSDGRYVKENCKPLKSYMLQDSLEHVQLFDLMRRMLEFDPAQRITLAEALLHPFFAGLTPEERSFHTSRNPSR
Protocol: as §2

[14] = biological target: CLK2 (Homo sapiens, UniProt P49760); test: Thermal stability shift assay; conditions: inhibitor 10 μM; read-out: Tm shift CLK2
Chain of CLK2 (P49760 whole entry): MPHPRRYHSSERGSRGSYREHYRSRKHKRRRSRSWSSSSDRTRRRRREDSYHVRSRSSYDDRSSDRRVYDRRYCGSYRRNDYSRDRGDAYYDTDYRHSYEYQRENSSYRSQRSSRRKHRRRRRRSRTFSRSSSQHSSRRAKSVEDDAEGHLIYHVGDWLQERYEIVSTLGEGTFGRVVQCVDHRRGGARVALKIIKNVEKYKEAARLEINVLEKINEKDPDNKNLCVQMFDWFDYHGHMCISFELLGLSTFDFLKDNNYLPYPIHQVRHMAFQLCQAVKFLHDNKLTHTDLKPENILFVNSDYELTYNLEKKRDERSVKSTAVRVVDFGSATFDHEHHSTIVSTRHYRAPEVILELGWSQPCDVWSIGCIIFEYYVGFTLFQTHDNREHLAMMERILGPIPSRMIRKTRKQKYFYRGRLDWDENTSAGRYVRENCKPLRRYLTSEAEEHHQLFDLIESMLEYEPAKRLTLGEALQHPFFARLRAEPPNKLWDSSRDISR
Protocol: as §2

Chain of PIM2 (Q9P1W9 whole entry): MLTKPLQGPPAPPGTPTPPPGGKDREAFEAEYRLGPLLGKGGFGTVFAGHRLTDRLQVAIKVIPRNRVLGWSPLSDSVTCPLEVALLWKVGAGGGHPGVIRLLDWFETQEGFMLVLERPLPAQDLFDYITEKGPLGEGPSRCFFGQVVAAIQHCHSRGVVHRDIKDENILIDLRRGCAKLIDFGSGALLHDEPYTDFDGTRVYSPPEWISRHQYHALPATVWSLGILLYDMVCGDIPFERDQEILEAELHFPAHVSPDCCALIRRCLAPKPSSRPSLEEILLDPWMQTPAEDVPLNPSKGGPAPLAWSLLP

Row | ΔTm at 10 µM ([1]; inhibitor 10 μM) | ΔTm at 10 µM ([2]; inhibitor 10 μM) | ΔTm at 10 µM [8] | ΔTm at 10 µM ([3]; inhibitor 10 μM) | ΔTm at 10 µM [9] | ΔTm at 10 µM [10] | ΔTm at 10 µM ([4]; inhibitor 10 μM) | ΔTm at 10 µM [11] | ΔTm at 10 µM [12] | ΔTm at 10 µM [13] | ΔTm at 10 µM [14] | ΔTm at 10 µM ([5]; inhibitor 10 μM) | ΔTm at 10 µM ([6]; inhibitor 10 μM) | Structure (SMILES) | ΔTm at 10 µM [1] | ΔTm at 10 µM [2] | ΔTm at 10 µM [3] | ΔTm at 10 µM [4] | ΔTm at 10 µM [5] | ΔTm at 10 µM [6] | Interaction in thermal shift screen, panel of 106 kinases [7]
1 | – | – | – | – | – | – | – | – | – | – | – | – | – | CCOC(=O)c1c(C(C#N)=CN)c2ccc(Cl)c(Cl)c2n1C (mixture of isomers) [KH-CB20, (E/Z)-Ethyl 3-(2-Amino-1-Cyanovinyl)-6,7-Dichloro-1-Methyl-1H-Indole-2-Carboxylate] | 2.1 °C | 0.3 °C | 3 °C | 0.2 °C | 0.1 °C | 0.3 °C | –
2 | 0.8 °C | 0 °C | 4.1 °C | 2.5 °C | 0.3 °C | 0.6 °C | -0.1 °C | 0.7 °C | 5.6 °C | 1.7 °C | 3 °C | 0.1 °C | 0.5 °C | CCOC(=O)c1c(C(C#N)=CN(C)C)c2ccc(Cl)c(Cl)c2n1C (mixture of isomers) [compound 2, (E/Z)-Ethyl 6,7-Dichloro-3-[1-Cyano-2-(Dimethylamino)Vinyl]-1-Methyl-1H-Indole-2-Carboxylate] | – | – | – | – | – | – | showed only interaction with CLK family members
3 | – | – | – | – | – | – | – | – | – | – | – | – | – | CCOC(=O)c1c(/C(C#N)=C\N)c2ccc(Cl)c(Cl)c2n1C [KH-CB19, (E)-Ethyl 3-(2-Amino-1-Cyanovinyl)-6,7-Dichloro-1-Methyl-1H-Indole-2-Carboxylate] | 2.1 °C | 0.1 °C | 2.9 °C | 0.2 °C | -0.3 °C | 0.1 °C | –
4 | 3 °C | 0.4 °C | 9.6 °C | 3.4 °C | 0.9 °C | 5.1 °C | 0.4 °C | 2.1 °C | 10.9 °C | 7.9 °C | 6.3 °C | -0.5 °C | 0 °C | Cn1c2c(Cl)c(Cl)ccc2c2c(C#N)c[nH]c(=O)c21 [compound 3, 7,8-Dichloro-9-Methyl-1-Oxo-2,9-Dihydro-1H-Pyrido[3,4-b]Indole-4-Carbonitrile] | – | – | – | – | – | – | showed only interaction with CLK family members

Row | Structure (SMILES) | ΔTm at 10 µM ([1]; inhibitor 10 μM) | ΔTm at 10 µM ([2]; inhibitor 10 μM) | ΔTm at 10 µM [8] | ΔTm at 10 µM ([3]; inhibitor 10 μM) | ΔTm at 10 µM [9] | ΔTm at 10 µM [10] | ΔTm at 10 µM ([4]; inhibitor 10 μM) | ΔTm at 10 µM [11] | ΔTm at 10 µM [12] | ΔTm at 10 µM [13] | ΔTm at 10 µM [14] | ΔTm at 10 µM ([5]; inhibitor 10 μM) | ΔTm at 10 µM ([6]; inhibitor 10 μM) | ΔTm at 10 µM [1] | ΔTm at 10 µM [2] | ΔTm at 10 µM [3] | ΔTm at 10 µM [4] | ΔTm at 10 µM [5] | ΔTm at 10 µM [6] | Interaction in thermal shift screen, panel of 106 kinases [7]
5 | NC1=NC(=O)/C(=C2\CCNC(=O)c3[nH]c(Br)cc32)N1 [Hymenialdisine, hymenialdisine, reference compound] | 3.5 °C | 2 °C | 7 °C | 0.6 °C | 4.8 °C | 4.4 °C | 1.5 °C | 0.8 °C | 7.8 °C | 7.2 °C | 4.4 °C | – | 3.5 °C | – | – | – | – | – | – | –
